For 20 compounds, IC50 results are on record in ChEMBL document CHEMBL5604066, “ASAP - DENV-4 NS2B-NS3 protease fluorescence dose response” (2024).

The test has as its target T1, NS3 protease (dengue virus type 4, UniProt A0A0K0TQ36).
T1 sequence (A0A0K0TQ36 whole entry): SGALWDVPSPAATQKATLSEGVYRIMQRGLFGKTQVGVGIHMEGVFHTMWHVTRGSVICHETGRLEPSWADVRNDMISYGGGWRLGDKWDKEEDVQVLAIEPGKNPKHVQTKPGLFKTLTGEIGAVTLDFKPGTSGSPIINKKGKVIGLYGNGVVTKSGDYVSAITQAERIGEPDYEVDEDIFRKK
As to the kind of experiment: Functional biochemical assay to identify treatments for viral infectious disease that targets Dengue virus type 4 NS2B-NS3 protease. Utilizing a direct enzyme activity measurement method, reading the fluorescence intensity is used to characterize the relative potency of inhibitors as IC50. Details: species or system Philippines/H241/1956.
The term IC50 denotes the concentration needed to halve the response being measured. Read a high IC50 as weaker potency. For `O=C(Nc1ccc2c(c1)CNC2)c1cccc(-c2cnco2)c1`, the IC50 stood at 23.3 µM. This lies in the double-digit micromolar range.
`O=C(Nc1cc(Cl)cc(C(=O)Nc2ccc3c(c2)CCNC3)c1)OCc1ccccc1` showed an IC50 of 32.1 µM. This IC50 and that of the compound before are within 1.5-fold of each other.
The compound `CCOCCNC(=O)[C@H](Nc1ccc2c(c1)CNC2)c1cc(Cl)cc2[nH]ncc12` registered a 50% inhibitory concentration (IC50) greater than 99.5 µM.
In turn, `O=C(Nc1ccc2c(c1)CNC2)c1cc(F)cc2[nH]c(-c3ccccc3)nc12` registered an IC50 of 5.41 µM.
Regarding `O=C(Nc1cc(Cl)cc(C(=O)Nc2cccc([C@H]3C[C@H]3C(=O)O)c2)c1)OCc1ccccc1`, the IC50 stood at 32.8 µM.
In the case of `CNC(=O)[C@H](Nc1cc(CN)cc(C(=O)O)c1)c1cc(Cl)cc(C2CC2)c1` it was greater than 99.5 µM; in that of `O=C(Nc1ccc2c(c1)CNC2)c1cc(F)cc2c1CCC2`, greater than 99.5 µM; in that of `CC(C)(C)c1cc(Br)cc(C(=O)Nc2ccc3c(c2)CNC3)c1`, greater than 99.5 µM.
`Cc1[nH]c2ccccc2c1CN1CCC(c2c[nH]c3ncccc23)CC1` had an IC50 greater than 99.5 µM.
In turn, `CNC(=O)[C@H](Nc1ccc2c(c1)CNC2)c1cc(Cl)cc(C2CC2)c1` had an IC50 greater than 99.5 µM.
Turning to `Cc1cccc(-c2nc3c(C(=O)Nc4ccc5c(c4)CNC5)cc(Cl)cc3[nH]2)c1O`, half-maximal inhibition (IC50) required 3.54 µM.
The figure for `O=C(Nc1ccc2c(c1)CNC2)c1cccc2nc(O)ccc12` is greater than 99.5 µM; for `O=C(Nc1ccc2c(c1)CNC2)c1cc(Br)cc2[nH]c(=O)[nH]c12` it is 38.7 µM; for `c1cc(C2CCN(Cc3c[nH]c4ccccc34)CC2)c2ccncc2c1` it is greater than 99.5 µM.
In the case of `O=C(Nc1ccc2c(c1)CNC2)c1cc(Cl)cc2nn(-c3ccccc3)nc12` it was 5.25 µM; in that of `N#Cc1cc2c(cc1NC(=O)c1cc(F)cc3[nH]ncc13)CNC2`, 36.9 µM; in that of `NCc1cccc(NC(=O)c2cc(Cl)cc(NC(=O)OCc3ccccc3)c2)c1`, 34.6 µM.
For `Cn1cc2cc(Cl)cc(C(=O)Nc3ccc4c(c3)CNC4)c2n1`, the 50% inhibitory concentration (IC50) is greater than 99.5 µM.
The figure for `O=C(Nc1cc(Cl)cc(-c2ccc3[nH]c(C(=O)O)cc3c2)c1)OCc1ccccc1` is 6.92 µM; for `CNC(=O)[C@H](Nc1cccc(CN)c1)c1cc(Cl)cc(NC(=O)OCc2ccccc2)c1` it is greater than 99.5 µM.
